System: human insulin-like growth factor-1 (h-IGF-1) production in Hs68 cells
Assay: Enhancement of h-IGF-1 production in Hs68 cells (ELISA)
Type: cell-based
Conditions: Example 3-(2): 10 to 20 µM
Description: (1) Human newborn foreskin […] Hs68 cells (ATCC CRL-1635) were cultured in a D-MEM medium (Bio Whittaker) containing 10% fetal calf serum (FBS; Gibco BRL) in the presence of 5% CO2 at 37°C to saturation in a culture vessel. Then, the cells were suspended in the medium at a concentration of 3 x 10^5/ml using a trypsin-EDTA solution (Bio Whittaker). 200 µl of the suspension was dispensed into each well of a 96-well microtiter plate. When the cells were almost saturated in the culture vessel after culturing for 5 days, the medium was discarded and a medium containing 4HCP at a concentration of 40, 100 or 200 µM was added thereto. The culture supernatant was recovered at intervals of 24 hours for up to 96 hours. The effect of 4HCP on enhancement of human insulin-like growth factor-1 (h-IGF-1) production in Hs68 cells was determined using ELISA-Kit for h-IGF-1 (Diagnostic System Labo).
(2) Hs68 cells were cultured in a D-MEM medium containing 10% fetal calf serum in the presence of 5% CO2 at 37°C to saturation in a culture vessel. Then, the cells were suspended in the medium at a concentration of 3 x 10^5/ml using a trypsin-EDTA solution. 200 µl of the suspension was dispensed into each well of a 96-well microtiter plate. When the cells were almost saturated in the culture vessel after culturing for 5 to 7 days, the medium was discarded and the medium containing cyclopentenone or GM at a concentration of 0, 2.5, 5, 10 or 20 µM was added thereto. The culture supernatant was recovered at 1, 3, 6, 12, 24 or 48 hours. The effect of cyclopentenone or GM on the production (enhancement of expression) of h-IGF-1 in Hs68 cells was determined using ELISA-Kit for h-IGF-1. […] The amount of h-IGF-1 produced 6 hours after the addition was about twice the amount for the control with no addition. […] (3) Hs68 cells were cultured in a D-MEM medium containing 10% fetal calf serum in the presence of 5% CO2 at 37°C to saturation in a culture vessel. Then, the cells were suspended in the medium at a concentration of 3 x 10^5/ml using a trypsin-EDTA solution. 200 µl of the suspension was dispensed into each well of a 96-well microtiter plate. When the cells were almost saturated in the culture vessel after culturing for 5 to 7 days, the medium was discarded and the medium containing 4HCP, a compound of formula (XVIII) (4HCP-GSH) or glutathione (GSH) at a concentration of 0, 25, 50, 100 or 200 µM was added thereto. The culture supernatant was recovered at 1, 3, 6, 12, 24 or 48 hours. The effect on the production (enhancement of expression) of h-IGF-1 in Hs68 cells was determined using ELISA-Kit for h-IGF-1. As a result, when 4HCP was added at a concentration of 25 to 200 µM, h-IGF production in Hs68 cells became maximal at 1 hour and decreased thereafter as the time went by. […] Significant enhancement of h-IGF-1 production was observed when cultured for 10 to 30 minutes. […]

O=C1C=CC(O)C1O (stereo not shown) [cyclopentenone, 4,5-dihydroxy-2-cyclopenten-1-one]
production of h-IGF-1 in Hs68 cells (result in words): h-IGF-1 production was observed from 1-hour to 6 hours after the addition
